Like-named read-outs stand apart in the source and are kept apart here. One block for each compound: values may come before it. Square brackets hold non-standard residues; d marks the D form. Peptide text beside a SMILES is read from it. * marks the point of attachment. X1 = N[C@H](CCCCCCC(Cl)Cl)[C@@H](O)C(=O)*; X4 = CN[C@H](CCCCCCCCl)[C@@H](O)C(=O)*; X14 = CCCCCCC[C@@H](N)[C@@H](O)C(=O)*; NMeY = CN[C@@H](Cc1ccc(O)cc1)C(=O)O; dNMeY = CN[C@H](Cc1ccc(O)cc1)C(=O)O; X9 = CCCCCCC[C@H](N)[C@H](O)C(=O)*; NMeL = CN[CH](CC(C)C)C(=O)O; X2 = N[C@H](CCCCCCCCl)CC(=O)*; NMeV = CN[C@H](C(=O)O)C(C)C; X8 = CCCCCCCC(N)C(O)C(=O)*
Columns and labels:
[1] = test system: ACE; conditions: Table S1, cited from earlier work
[2] = test system: APM; conditions: cited from earlier work; for IC50: Table S1, read-out: Activity: APM; for Activity: APM (ni): Table S1, 'APM, ACE-ni'
[3] = molecular target: T1, porcine kidney microsomal aminopeptidase M (Sus scrofa, UniProt P15145); assay: Aminopeptidase M inhibitory assay; assay type: biochemical
T1 construct: purchased Sigma-Aldrich (St. Louis, MO, USA); host or cells: porcine kidney microsomes
T1 sequence (P15145 1-963): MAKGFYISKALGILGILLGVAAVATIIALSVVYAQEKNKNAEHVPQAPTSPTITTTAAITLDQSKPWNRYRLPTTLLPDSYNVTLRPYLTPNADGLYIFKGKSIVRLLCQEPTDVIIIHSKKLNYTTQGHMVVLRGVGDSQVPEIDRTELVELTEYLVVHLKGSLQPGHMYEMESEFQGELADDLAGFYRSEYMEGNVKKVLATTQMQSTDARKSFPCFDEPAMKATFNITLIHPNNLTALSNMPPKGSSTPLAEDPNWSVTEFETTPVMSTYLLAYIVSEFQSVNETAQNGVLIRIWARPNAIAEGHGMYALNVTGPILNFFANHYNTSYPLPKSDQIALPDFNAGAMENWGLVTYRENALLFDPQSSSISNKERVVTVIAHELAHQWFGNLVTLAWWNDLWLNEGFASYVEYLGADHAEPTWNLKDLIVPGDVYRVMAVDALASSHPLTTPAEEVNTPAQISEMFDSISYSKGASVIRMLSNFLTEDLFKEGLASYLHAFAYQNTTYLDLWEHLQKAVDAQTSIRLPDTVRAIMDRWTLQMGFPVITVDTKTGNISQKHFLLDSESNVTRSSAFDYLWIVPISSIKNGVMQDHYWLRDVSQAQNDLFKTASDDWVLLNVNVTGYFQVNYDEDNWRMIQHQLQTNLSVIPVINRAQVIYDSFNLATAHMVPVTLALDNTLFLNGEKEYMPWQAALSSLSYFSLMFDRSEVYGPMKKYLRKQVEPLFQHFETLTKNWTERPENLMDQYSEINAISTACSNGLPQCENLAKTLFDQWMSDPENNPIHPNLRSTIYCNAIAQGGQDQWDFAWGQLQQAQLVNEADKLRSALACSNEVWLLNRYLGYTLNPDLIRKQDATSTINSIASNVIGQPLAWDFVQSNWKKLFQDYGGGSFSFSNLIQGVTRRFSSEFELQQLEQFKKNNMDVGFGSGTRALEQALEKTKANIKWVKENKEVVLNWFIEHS
Experimental: Aminopeptidase M inhibitory activity was determined according to the procedure described by Ishida et al.. A reaction mixture composed of 20 μL of L-leucine-p-nitroanilide (2 mM in 0.1 M Tris-HCl buffer at pH 7.0), 50 μL of 0.1 M Tris-HCl buffer (pH 7.0) and 20 μL of test solution was added to each well of a 96-well microtiter plate. The plate was incubated at 37 °C for 5 min; thereafter, 10 μL of porcine kidney microsomal aminopeptidase M [EC Number 232-942-5, Sigma-Aldrich (St. Louis, MO, USA), […] in 3.5 M (NH4)2SO4] was added to each well, and the absorbance at 405 nm was measured for 30 min. The microginin samples were dissolved in DMSO at a concentration of 1 mg/mL, and the IC50 values were determined by analysis of a series of dilutions (from 45.5 μM to 0.00069 μM). A sigmoidal curve of the enzyme inhibition versus the concentration of the inhibitor was observed that was fit to a 4-parameter logistic model.

[4] = ref 6 (Ishida et al., Tetrahedron 2000)
[5] = ref 9 (Sano et al., Phytochem. 2005)
[6] = ref 4 (Ishida et al., Tetrahedron 1998)

Compound: CCCCCCC[C@@H](N)[C@@H](O)C(=O)N[C@H](C(=O)N(C)[C@@H](CC(C)C)C(=O)N1CCC[C@H]1C(=O)N[C@@H](Cc1ccc(O)cc1)C(=O)O)[C@@H](C)CC [Microginin 91-C] (X14-I[NMeL]PY-OH)
Activity: ACE (ni) [1, 4]: ni
IC50 [2, 4]: 71.1 µM

Compound: CN[C@H](CCCCCCCCl)[C@@H](O)C(=O)N[C@@H](Cc1ccc(O)cc1)C(=O)N(C)[C@@H](CC(C)C)C(=O)N1CCC[C@H]1C(=O)N[C@@H](Cc1ccc(O)cc1)C(=O)O [Microginin KR801] (X4-Y[NMeL]PY-OH)
IC50 ([3]; read-out: Activity: APM, Table S1, source 14 = this manuscript): 0.0001 µM
IC50 ([3]; read-out: IC50 in μM ± SD, Table 4, substrate L-leucine-p-nitroanilide, Tris-HCl pH 7.0, 37 °C): 0.1 ± 0.2 µM

IC50 ([3]; Table 4, substrate L-leucine-p-nitroanilide, Tris-HCl pH 7.0, 37 °C, read-out: IC50 in μM ± SD): 3.8 ± 0.3 µM
IC50 ([3]; Table S1, source 14 = this manuscript, heading: Activity: APM, read-out: Activity: APM): 3.8 µM
Compound: CN[C@H](CCCCCCCCl)[C@@H](O)C(=O)N[C@@H](Cc1ccc(O)cc1)C(=O)N(C)[C@@H](CC(C)C)C(=O)N1CCC[C@H]1C(=O)O [Microginin KR638]

Compound: CCCCCCCC(N)C(O)C(=O)NC(Cc1ccc(O)cc1)C(=O)N(C)C(CC(C)C)C(=O)N1CCCC1C(=O)NC(Cc1ccc(O)cc1)C(=O)O (stereo not shown) [Cyanostatin B] (X8-Y[NMeL]PY-OH; configuration not given here)
IC50 [1, 5]: 170 µM
IC50 [2, 5]: 16 µM

Compound: CCCCCCC[C@H](N)[C@H](O)C(=O)N(C)[C@@H](CCSC)C(=O)N[C@@H](Cc1ccc(O)cc1)C(=O)N[C@@H](Cc1ccc(O)cc1)C(=O)O [Microginin 674]
Activity ([1]; ref 15 (Product of LKT Laboratories, Inc.)): ACE inhibitor

Compound: CC(C)C[C@H](NC(=O)[C@H](Cc1ccc(O)cc1)NC(=O)C[C@H](N)CCCCCCCCl)C(=O)N(C)[C@@H](Cc1ccc(O)cc1)C(=O)N1CCC[C@H]1C(=O)O [Microginin 99-A] (X2-YL[NMeY]P-OH)
Activity: ACE (ni) [1, 6]: ni
Activity: APM (ni) [2, 6]: ni

Compound: CCCCCCC[C@H](N)[C@H](O)C(=O)N[C@@H](Cc1ccc(O)cc1)C(=O)N(C)[C@H](C(=O)N(C)[C@@H](Cc1ccc(O)cc1)C(=O)N1CCC[C@@H]1C(=O)N[C@@H](Cc1ccc(O)cc1)C(=O)O)C(C)C [Microginin 51-A] (X9-Y[NMeV][NMeY][dP]Y-OH)
Activity: ACE (ni) [1, 4]: ni
IC50 [2, 4]: 4.9 µM

Compound: CCC(C)C(NC(=O)C(O)C(N)CCCCCCCCl)C(=O)N(C)C(CC(C)C)C(=O)N1CCCC1C(=O)O (stereo not shown) [Microginin 91-B]
Activity: ACE (ni) [1, 4]: ni
Activity: APM (ni) [2, 4]: ni

Compound: CC(C)[C@H](NC(=O)[C@H](O)[C@H](N)CCCCCCC(Cl)Cl)C(=O)N(C)[C@H](C(=O)N(C)[C@H](Cc1ccc(O)cc1)C(=O)N1CCC[C@@H]1C(=O)O)C(C)C [Microginin 299-D] (X1-V[NMeV][dNMeY][dP]-OH)
Activity: ACE (ni) [1, 6]: ni
IC50 [2, 6]: 8.5 µM

Compound: CCCCCCC[C@H](N)[C@H](O)C(=O)N(C)[C@@H](CC[S+](C)[O-])C(=O)N[C@@H](Cc1ccc(O)cc1)C(=O)N[C@@H](Cc1ccc(O)cc1)C(=O)O (stereo partly shown) [Microginin 690]
Activity ([1]; ref 16 (Product of Santa Cruz Biotechnology)): ACE inhibitor

Compound: CC[C@H](C)[C@H](NC(=O)[C@H](O)[C@H](N)CCCCCCC(Cl)Cl)C(=O)N(C)[C@@H](CC(C)C)C(=O)N1CCC[C@H]1C(=O)N[C@@H](Cc1ccc(O)cc1)C(=O)O [Microginin 91-E] (X1-I[NMeL]PY-OH)
Activity: ACE (ni) [1, 4]: ni
IC50 [2, 4]: 19.5 µM

Compound: Microginin 91-A
Activity: ACE (ni) [1, 4]: ni
Activity: APM (ni) [2, 4]: ni

From paper PMC5867622, “Microginins from a Microcystis sp. Bloom Material Collected from the Kishon Reservoir, Israel” (Marine Drugs, 2018)
